Source: patent US10899793B2, “Melanocortin ligands and methods of use thereof” (priority 2016, dated 2021)
Square brackets hold non-standard residues; d marks the D form. Peptide text beside a SMILES is read from it. Bip = N[C@@H](Cc1ccc(-c2ccccc2)cc1)C(=O)O; dPhe(4-I) = N[C@H](Cc1ccc(I)cc1)C(=O)O; 2Nal = N[C@@H](Cc1ccc2ccccc2c1)C(=O)O; d2Nal = N[C@H](Cc1ccc2ccccc2c1)C(=O)O; Bta = N[C@@H](Cc1csc2ccccc12)C(=O)O; Tic = O=C(O)[C@@H]1Cc2ccccc2CN1; Nle = CCCC[C@H](N)C(=O)O

How the values were obtained:
mMC1R = mMC1R (Mus musculus, UniProt Q01727); assay: AlphaScreen cAMP agonist assay at mMC1R; settings: for mMC1R percent of the NDP-MSH maximal positive control: Table 2, @ 100 μM
mMC4R [1] = biological target: T1, mMC4R (Mus musculus, UniProt P56450); assay: AlphaScreen cAMP agonist assay at mMC4R; settings: for activation at 100 µM: read-out: mMC4R Agonist, percent of the NDP-MSH maximal positive control
mMC5R = mMC5R (Mus musculus, UniProt P41149); assay: AlphaScreen cAMP agonist assay at mMC5R; settings: for activation at 100 µM: read-out: percent of the NDP-MSH maximal positive control, Table 2
mMC3R [2] = biological target: T2, mMC3R (Mus musculus, UniProt P33033); assay: AlphaScreen cAMP agonist assay at mMC3R; settings: for mMC3R Agonist, percent of the NDP-MSH maximal positive control: Table 1, @ 100 μM
mMC4R [3] = biological target: T1, mMC4R; settings: for mMC4R Antagonist pA2 ± SEM: Table 1, pA2 = -Log(Ki); for mMC4R Antagonist pA2 ± SEM / mMC4R pA2: Schild analysis; for mMC4R pA2: Table 5
mMC3R [4] = biological target: T2, mMC3R; settings: Schild analysis; for mMC3R Antagonist pA2 ± SEM: Table 1, pA2 = -Log(Ki), Full Agonist = full dose-response, No Activity = no shift in EC50; for mMC3R pA2: Table 5

Chain of mMC5R (P41149 whole entry): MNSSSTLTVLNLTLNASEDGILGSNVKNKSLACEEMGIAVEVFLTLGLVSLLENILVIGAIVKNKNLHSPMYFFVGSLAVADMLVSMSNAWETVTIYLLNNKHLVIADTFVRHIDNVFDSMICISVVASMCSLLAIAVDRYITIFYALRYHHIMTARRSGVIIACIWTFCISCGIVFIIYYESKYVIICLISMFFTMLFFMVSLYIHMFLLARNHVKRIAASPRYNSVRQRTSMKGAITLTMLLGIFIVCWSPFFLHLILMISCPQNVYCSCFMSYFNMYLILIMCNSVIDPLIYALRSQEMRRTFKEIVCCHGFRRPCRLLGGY
T1 sequence (P56450 whole entry): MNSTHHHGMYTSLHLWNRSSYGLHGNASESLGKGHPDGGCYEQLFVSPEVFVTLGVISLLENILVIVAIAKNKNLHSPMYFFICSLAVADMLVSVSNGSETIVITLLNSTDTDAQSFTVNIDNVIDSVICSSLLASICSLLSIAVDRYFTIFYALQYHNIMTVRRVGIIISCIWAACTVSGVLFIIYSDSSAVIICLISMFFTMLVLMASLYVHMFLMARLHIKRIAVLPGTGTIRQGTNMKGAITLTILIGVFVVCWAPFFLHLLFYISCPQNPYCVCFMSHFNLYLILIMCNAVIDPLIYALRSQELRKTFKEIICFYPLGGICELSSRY
Chain of mMC1R (Q01727 whole entry): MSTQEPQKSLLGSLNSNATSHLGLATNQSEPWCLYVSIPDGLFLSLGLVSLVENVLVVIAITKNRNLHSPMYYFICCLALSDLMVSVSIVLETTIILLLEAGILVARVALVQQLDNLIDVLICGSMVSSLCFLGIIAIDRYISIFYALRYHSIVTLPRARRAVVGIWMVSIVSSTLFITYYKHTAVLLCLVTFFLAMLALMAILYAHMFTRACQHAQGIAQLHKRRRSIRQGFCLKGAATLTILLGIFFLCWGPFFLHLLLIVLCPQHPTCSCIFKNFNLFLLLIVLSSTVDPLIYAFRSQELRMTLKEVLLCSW
T2 sequence (P33033 whole entry): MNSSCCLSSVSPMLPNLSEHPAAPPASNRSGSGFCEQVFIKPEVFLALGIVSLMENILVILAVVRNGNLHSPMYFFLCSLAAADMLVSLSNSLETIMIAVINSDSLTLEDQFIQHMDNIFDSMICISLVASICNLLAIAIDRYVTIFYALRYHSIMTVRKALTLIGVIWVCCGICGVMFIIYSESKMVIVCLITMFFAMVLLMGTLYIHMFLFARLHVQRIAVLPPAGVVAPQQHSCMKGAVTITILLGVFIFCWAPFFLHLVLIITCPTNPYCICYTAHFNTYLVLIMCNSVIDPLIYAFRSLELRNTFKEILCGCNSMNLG

| Molecule | mMC1R percent of the NDP-MSH maximal positive control (mMC1R) | mMC3R Agonist, percent of the NDP-MSH maximal positive control (mMC3R [2]) | mMC4R Antagonist pA2 ± SEM (mMC4R [3]) | mMC3R Antagonist pA2 ± SEM (mMC3R [4]) | activation at 100 µM (mMC4R [1]) | activation at 100 µM (mMC5R) | other results |
| --- | --- | --- | --- | --- | --- | --- | --- |
| CCCC[C@H](NC(=O)[C@H](CO)NC(=O)[C@H](Cc1ccc(O)cc1)NC(=O)[C@H](CO)NC(C)=O)C(=O)N[C@@H](CCC(=O)O)C(=O)N[C@@H](Cc1c[nH]cn1)C(=O)N[C@@H](CCCNC(=N)N)C(=O)N[C@H](Cc1ccccc1)C(=O)N[C@@H](Cc1c[nH]c2ccccc12)C(=O)NCC(=O)N[C@@H](CCCCN)C(=O)N1CCC[C@H]1C(=O)N[C@H](C(N)=O)C(C)C [SKY2-125-3, Ac-Ser-Tyr-Ser-Nle-Glu-His-Arg-DPhe-Trp-Gly-Lys-Pro-Val-NH2] (Ac-SYS[Nle]EHR[dF]WGKPV-NH2) | – | – | – | – | – | – | EC50 (mMC1R): 0.38 ± 0.07 µM; EC50 (mMC4R [1]): 9.5 µM; EC50 (mMC5R): 1.6 µM; EC50 (mMC3R [2]): 1.8 µM |
| CC(=O)N[C@@H](CCCNC(=N)N)C(=O)N[C@@H](CCCNC(=N)N)C(=O)N[C@H](Cc1ccc(I)cc1)C(=O)N[C@@H](Cc1ccc(-c2ccccc2)cc1)C(N)=O [SKY4-48-2, Ac-Arg-Arg-(pI)DPhe-Bip-NH2] | 44% @ 100 μM | 45% @ 100 μM | – | – | 32% | – | antagonist pA2 at the mMC4R (mMC4R [3]): 5.8 |
| CC(=O)N[C@@H](Cc1c[nH]cn1)C(=O)N[C@@H](CCCNC(=N)N)C(=O)N[C@H](Cc1ccc(I)cc1)C(=O)N[C@H](Cc1ccc2ccccc2c1)C(N)=O [SKY4-48-43, Ac-His-Arg-(pI)DPhe-DNal(2′)-NH2] (Ac-HR[dPhe(4-I)][d2Nal]-NH2) | – | – | – | Full Agonist | 50% | 47% | – |
| CC(=O)N[C@@H](Cc1ccc2ccccc2c1)C(=O)N[C@@H](CCCNC(=N)N)C(=O)N[C@H](Cc1ccc(I)cc1)C(=O)N[C@H](Cc1ccc2ccccc2c1)C(N)=O [SKY4-48-48, Ac-Nal(2′)-Arg-(pI)DPhe-DNal(2′)-NH2] (Ac-[2Nal]R[dPhe(4-I)][d2Nal]-NH2) | 53% @ 100 μM | 31% @ 100 μM | No Activity | No Activity | – | 40% | – |
| CC(=O)N[C@H](Cc1ccc2ccccc2c1)C(=O)N[C@@H](CCCNC(=N)N)C(=O)N[C@H](Cc1ccc(I)cc1)C(=O)N[C@H](Cc1ccc2ccccc2c1)C(N)=O [SKY4-48-49, Ac-DNal(2′)-Arg-(pI)DPhe-DNal(2′)-NH2] (Ac-[d2Nal]R[dPhe(4-I)][d2Nal]-NH2) | – | 40% @ 100 μM | – | – | 37% | 43% | – |
| CC(=O)N[C@H](Cc1c[nH]c2ccccc12)C(=O)N[C@H](CCCNC(=N)N)C(=O)N[C@@H](Cc1ccccc1)C(=O)N[C@H](Cc1c[nH]cn1)C(N)=O [SKY5-121, Ac-DTrp-DArg-Phe-DHis-NH2] (Ac-[dW][dR]F[dH]-NH2) | – | – | – | – | – | – | EC50 (mMC1R): > 100 µM; EC50 (mMC4R [1]): > 100 µM; mMC5R percent of the NDP-MSH maximal positive control (mMC5R; Table 5, @ 100 μM): 29% @ 100 μM; EC50 (mMC3R [2]): > 100 µM; mMC4R pA2 (mMC4R [3]): pA2 = No Activity; mMC3R pA2 (mMC3R [4]): pA2 = No Activity |
| CC(=O)N[C@H](Cc1ccc2ccccc2c1)C(=O)N[C@@H](CCCNC(=N)N)C(=O)N[C@H](Cc1ccc(I)cc1)C(=O)N[C@@H](Cc1ccc2ccccc2c1)C(N)=O [SKY5-146-5, Ac-DNal(2′)-Arg-(pI)DPhe-Nal(2′)-NH2] (Ac-[d2Nal]R[dPhe(4-I)][2Nal]-NH2) | – | 43% @ 100 μM | – | – | 39% | 40% | – |
| CC(=O)N[C@@H](Cc1c[nH]cn1)C(=O)N[C@@H](CCCNC(=N)N)C(=O)N[C@H](Cc1ccccc1)C(=O)N[C@@H](Cc1c[nH]c2ccccc12)C(N)=O [SKY5-146-6, Ac-His-Arg-DPhe-Trp-NH2] (Ac-HR[dF]W-NH2) | – | – | – | – | – | – | EC50 (mMC1R): 1.3 µM; agonist / inverse agonist activity at the mMC1R in words (mMC1R; up to 100 μM): micromolar agonists; EC50 (mMC4R [1]): > 100 µM; agonist activity at the mMC4R in words (mMC4R [1]; up to 100 μM): no agonist activity; EC50 (mMC5R): 21 µM; agonist activity at the mMC5R in words (mMC5R; up to 100 μM): micromolar agonists; EC50 (mMC3R [2]): 21 µM; agonist activity at the mMC3R in words (mMC3R [2]; up to 100 μM): micromolar agonists; mMC4R pA2 (mMC4R [3]): pA2 = No Activity; mMC3R pA2 (mMC3R [4]): Full Agonist |
| Ac-3Bal-Arg-(pI)DPhe-DNal(2′)-NH2 (Ac-[Bta]R[dPhe(4-I)][d2Nal]-NH2) [SKY4-48-45] | 36% @ 100 μM | 34% @ 100 μM | No Activity | No Activity | – | – | mMC4R Agonist, percent of the NDP-MSH maximal positive control (mMC4R [1]; Table 1, @ 100 μM): 38% @ 100 μM; percent of the NDP-MSH maximal positive control, Table 2 (mMC5R; Table 2, @ 100 μM): 41% @ 100 μM |
| Ac-SYSMEHRFWGKPV-NH2 [SKY2-125-5] | – | – | – | – | – | – | EC50 (mMC1R): 3 µM; EC50 (mMC4R [1]): 44 µM; EC50 (mMC5R): 2.6 µM; EC50 (mMC3R [2]): 5.8 µM; fold decreased potency at the mMC3R relative to α-MSH (mMC3R [2]; Arg-Phe reverse analog vs parent): 45,000 fold |

More lines, main results first:

| mMC1R percent of the NDP-MSH maximal positive control (mMC1R) | mMC3R Agonist, percent of the NDP-MSH maximal positive control (mMC3R [2]) | mMC4R Antagonist pA2 ± SEM (mMC4R [3]) | mMC3R Antagonist pA2 ± SEM (mMC3R [4]) | Molecule | activation at 100 µM (mMC4R [1]) | activation at 100 µM (mMC5R) | other results |
| --- | --- | --- | --- | --- | --- | --- | --- |
| – | 53% @ 100 μM | No Activity | No Activity | CC(=O)N[C@@H](Cc1c[nH]cn1)C(=O)N[C@@H](CCCNC(=N)N)C(=O)N[C@H](Cc1ccc(I)cc1)C(=O)N[C@@H](Cc1ccc(-c2ccccc2)cc1)C(N)=O [SKY4-48-3, Ac-His-Arg-(pI)DPhe-Bip-NH2] (Ac-HR[dPhe(4-I)][Bip]-NH2) | 43% | – | – |
| – | 51% @ 100 μM | No Activity | No Activity | CC(=O)N[C@@H](Cc1csc2ccccc12)C(=O)N[C@@H](CCCNC(=N)N)C(=O)N[C@H](Cc1ccc(I)cc1)C(=O)N[C@@H](Cc1ccc(-c2ccccc2)cc1)C(N)=O [SKY4-48-5, Ac-3Bal-Arg-(pI)DPhe-Bip-NH2] (Ac-[Bta]R[dPhe(4-I)][Bip]-NH2) | 35% | – | – |
| 67% @ 100 μM | 30% @ 100 μM | No Activity | No Activity | CC(=O)N[C@@H](Cc1ccccc1)C(=O)N[C@@H](CCCNC(=N)N)C(=O)N[C@H](Cc1ccc(I)cc1)C(=O)N[C@@H](Cc1ccc(-c2ccccc2)cc1)C(N)=O [SKY4-48-7, Ac-Phe-Arg-(pI)DPhe-Bip-NH2] (Ac-FR[dPhe(4-I)][Bip]-NH2) | – | – | – |
| 38% @ 100 μM | – | – | Full Agonist | CC(=O)N1Cc2ccccc2C[C@H]1C(=O)N[C@@H](CCCNC(=N)N)C(=O)N[C@H](Cc1ccc(I)cc1)C(=O)N[C@@H](Cc1csc2ccccc12)C(N)=O [SKY4-48-14, Ac-Tic-Arg-(pI)DPhe-3Bal-NH2] (Ac-[Tic]R[dPhe(4-I)][Bta]-NH2) | – | – | – |
| 23% @ 100 μM | – | No Activity | No Activity | CC(=O)N[C@@H](Cc1ccc(-c2ccccc2)cc1)C(=O)N[C@@H](CCCNC(=N)N)C(=O)N[C@H](Cc1ccc(I)cc1)C(=O)N[C@@H](Cc1ccc2ccccc2c1)C(N)=O [SKY4-48-36, Ac-Bip-Arg-(pI)DPhe-Nal(2′)-NH2] (Ac-[Bip]R[dPhe(4-I)][2Nal]-NH2) | – | 21% | – |
| 66% @ 100 μM | – | – | No Activity | CC(=O)N1Cc2ccccc2C[C@H]1C(=O)N[C@@H](CCCNC(=N)N)C(=O)N[C@H](Cc1ccc(I)cc1)C(=O)N[C@@H](Cc1ccc2ccccc2c1)C(N)=O [SKY4-48-38, Ac-Tic-Arg-(pI)DPhe-Nal(2′)-NH2] (Ac-[Tic]R[dPhe(4-I)][2Nal]-NH2) | – | 48% | – |
| – | 42% @ 100 μM | No Activity | No Activity | CC(=O)N1Cc2ccccc2C[C@H]1C(=O)N[C@@H](CCCNC(=N)N)C(=O)N[C@H](Cc1ccc(I)cc1)C(=O)N[C@H](Cc1ccc2ccccc2c1)C(N)=O [SKY4-48-46, Ac-Tic-Arg-(pI)DPhe-DNal(2′)-NH2] (Ac-[Tic]R[dPhe(4-I)][d2Nal]-NH2) | 33% | 74% | – |
| 39% @ 100 μM | – | No Activity | No Activity | CC(=O)N1Cc2ccccc2C[C@H]1C(=O)N[C@@H](CCCNC(=N)N)C(=O)N[C@H](Cc1ccc(I)cc1)C(=O)N[C@@H](Cc1ccc(-c2ccccc2)cc1)C(N)=O [SKY5-146-1, Ac-Tic-Arg-(pI)DPhe-Bip-NH2] (Ac-[Tic]R[dPhe(4-I)][Bip]-NH2) | – | – | – |
